Source: ChEMBL document CHEMBL1201862, “PubChem BioAssay data set” (2004)
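Grown in 96-well plates, cells were treated for 48 hours with each compound at five concentrations. Insufficient inhibition: endpoint recorded as highest concentration tested. The concentration for 50% growth inhibition is given as GI50.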 Activity calls are given as the source filed them. Cut-off read from the data, not from the text of the source: active = GI50 up to about 1.1 µM and inactive = higher.

How the values were obtained:
Test in all cases: NCI anticancer screen, dose series, 48 h
CCRF-CEM = test system: CCRF-CEM
KM12 = test system: KM12
NCI-H460 = test system: NCI-H460
SK-MEL-5 = test system: SK-MEL-5
SN12C = test system: SN12C
HOP-92 = test system: HOP-92
SW-620 = test system: SW-620
HT-29 = test system: HT-29
TK-10 = test system: TK-10
OVCAR-5 = test system: OVCAR-5
SF-539 = test system: SF-539
UACC-62 = test system: UACC-62
IGROV-1 = test system: IGROV-1
HCT-15 = test system: HCT-15
Malme-3M = test system: Malme-3M
OVCAR-3 = test system: OVCAR-3
SK-OV-3 = test system: SK-OV-3
CAKI-1 = test system: CAKI-1

| Structure (SMILES) | GI50 (CCRF-CEM) | GI50 (KM12) | GI50 (NCI-H460) | GI50 (SK-MEL-5) | GI50 (SN12C) | GI50 (HOP-92) | GI50 (SW-620) | GI50 (HT-29) | GI50 (TK-10) | GI50 (OVCAR-5) | GI50 (SF-539) | GI50 (UACC-62) | GI50 (IGROV-1) | GI50 (HCT-15) [µM] | GI50 (Malme-3M) | GI50 (OVCAR-3) | GI50 (SK-OV-3) | GI50 (CAKI-1) |
| --- | --- | --- | --- | --- | --- | --- | --- | --- | --- | --- | --- | --- | --- | --- | --- | --- | --- | --- |
| COc1ccc(NC(=O)C2C(=O)N(c3ccc(OC)cc3)C(=O)/C2=N\N)cc1 (stereo not given) | > 100 µM (inactive) | > 100 µM (inactive) | > 100 µM (inactive) | > 100 µM (inactive) | > 100 µM (inactive) | > 100 µM (inactive) | > 100 µM (inactive) | > 100 µM (inactive) | > 100 µM (inactive) | > 100 µM (inactive) | > 100 µM (inactive) | > 100 µM (inactive) | > 100 µM (inactive) | > 100 | > 100 µM (inactive) | – | – | – |
| CC1CC2OC(=O)C3CC(O)CC(=C23)[C@@]12C[C@@H](c1ccoc1)OC2=O (stereo not given in full) | > 100 µM (inactive) | > 100 µM (inactive) | > 100 µM (inactive) | > 100 µM (inactive) | > 100 µM (inactive) | > 100 µM (inactive) | > 100 µM (inactive) | > 100 µM (inactive) | > 100 µM (inactive) | > 100 µM (inactive) | > 100 µM (inactive) | > 100 µM (inactive) | > 100 µM (inactive) | > 100 | > 100 µM (inactive) | > 100 µM (inactive) | > 100 µM (inactive) | – |
| C=CCCC12CCCC(=O)C1Sc1ccc3ccccc3c12 (stereo not given) | 17.7 µM (inactive) | 7.38 µM (inactive) | – | > 10 µM (inactive) | 14.6 µM (inactive) | – | 15.9 µM (inactive) | 20.1 µM (inactive) | 20.9 µM (inactive) | 27.5 µM (inactive) | 15.1 µM (inactive) | 11.9 µM (inactive) | 33.8 µM (inactive) | 11.1 | 16.4 µM (inactive) | 13.6 µM (inactive) | 21.1 µM (inactive) | 9.04 µM (inactive) |
| c1ccc2c(c1)N=C(c1ccc3ccccc3c1)CC(c1cccc3ccccc13)S2 (stereo not given) | 12.6 µM (inactive) | 18.9 µM (inactive) | 29.6 µM (inactive) | 38.5 µM (inactive) | 59.3 µM (inactive) | – | 32.8 µM (inactive) | 30.2 µM (inactive) | 75.7 µM (inactive) | > 100 µM (inactive) | 51.6 µM (inactive) | 21 µM (inactive) | 14 µM (inactive) | 21.3 | > 100 µM (inactive) | 33 µM (inactive) | > 100 µM (inactive) | 55.8 µM (inactive) |
| CC1(C(=O)O)CCOc2ccccc21 (stereo not given) | > 100 µM (inactive) | – | > 100 µM (inactive) | > 100 µM (inactive) | > 100 µM (inactive) | > 100 µM (inactive) | > 100 µM (inactive) | > 100 µM (inactive) | > 100 µM (inactive) | > 100 µM (inactive) | > 100 µM (inactive) | > 100 µM (inactive) | > 100 µM (inactive) | > 100 | > 100 µM (inactive) | > 100 µM (inactive) | – | > 100 µM (inactive) |
| COc1cc2c(c(OC)c1OC)-c1ccc(SC)c(=O)cc1[C@@H](NC(=O)c1ccc(C#N)cc1)CC2 | < 0.01 µM (active) | < 0.01 µM (active) | < 0.01 µM (active) | < 0.01 µM (active) | < 0.01 µM (active) | < 0.01 µM (active) | < 0.01 µM (active) | < 0.01 µM (active) | 3.3 µM (inactive) | < 0.01 µM (active) | < 0.01 µM (active) | < 0.01 µM (active) | < 0.01 µM (active) | < 0.01 | < 0.01 µM (active) | < 0.01 µM (active) | < 0.01 µM (active) | – |
| COc1cc2c(c(OC)c1OC)-c1ccc(OC)c(=O)cc1[C@@H](N(C)C=O)CC2 | 0.0164 µM (active) | < 0.01 µM (active) | < 0.0179 µM (active) | < 0.01 µM (active) | 0.0329 µM (active) | 0.0137 µM (active) | 0.0134 µM (active) | 0.0156 µM (active) | 1.45 µM (inactive) | > 8.51 µM (inactive) | 0.0148 µM (active) | 0.0177 µM (active) | 0.0262 µM (active) | 0.0752 | 0.0184 µM (active) | 0.0112 µM (active) | – | 0.0304 µM (active) |
| CC(=O)OCCOCNC(=S)N/N=C/c1cc([N+](=O)[O-])ccc1O | 56.6 µM (inactive) | > 100 µM (inactive) | > 100 µM (inactive) | > 100 µM (inactive) | > 100 µM (inactive) | > 100 µM (inactive) | 84.9 µM (inactive) | > 100 µM (inactive) | > 100 µM (inactive) | > 100 µM (inactive) | > 100 µM (inactive) | 69.8 µM (inactive) | > 100 µM (inactive) | > 100 | > 100 µM (inactive) | 42.5 µM (inactive) | > 100 µM (inactive) | – |
| CCOc1cccc2nc3cccc(C(=O)NCCN(C)C)c3nc12 | – | 0.867 µM (active) | – | 1.78 µM (inactive) | 0.719 µM (active) | 1.39 µM (inactive) | 0.543 µM (active) | 0.605 µM (active) | 1.27 µM (inactive) | 2.02 µM (inactive) | 1.14 µM (inactive) | 1.47 µM (inactive) | 1.04 µM (active) | 1.08 | 0.995 µM (active) | 1.6 µM (inactive) | 7.43 µM (inactive) | 3.16 µM (inactive) |
| C/C=C(\C)c1cc(O)c(C)c2c1Oc1cc(O)c(Cl)c(C)c1C(=O)O2 | – | 20.9 µM (inactive) | 20 µM (inactive) | 13.9 µM (inactive) | 16.6 µM (inactive) | – | 19.6 µM (inactive) | 19.2 µM (inactive) | 16.2 µM (inactive) | 16.6 µM (inactive) | 20 µM (inactive) | – | – | – | – | – | – | 27.4 µM (inactive) |
| O=C1C(c2ccccc2)=[N+]([O-])c2cc([N+](=O)[O-])c(/C(Cl)=C/c3ccccc3)cc21 | 10.5 µM (inactive) | 22.8 µM (inactive) | – | 20.4 µM (inactive) | – | – | 17.3 µM (inactive) | 22.3 µM (inactive) | 33.7 µM (inactive) | 31.2 µM (inactive) | 23.8 µM (inactive) | 30.6 µM (inactive) | 23.2 µM (inactive) | – | – | 13.5 µM (inactive) | > 100 µM (inactive) | – |
| CCN1CCC(O)(/C=C/c2ccc(Cl)cc2)C(C(=O)/C=C/c2ccc(Cl)cc2)C1 (stereo not given) | 22.7 µM (inactive) | 15.2 µM (inactive) | 28 µM (inactive) | 13.5 µM (inactive) | > 10 µM (inactive) | – | 21.2 µM (inactive) | 18.6 µM (inactive) | 31.1 µM (inactive) | 30.8 µM (inactive) | – | 17.3 µM (inactive) | 27.1 µM (inactive) | 21.7 | > 100 µM (inactive) | 18.9 µM (inactive) | 23 µM (inactive) | – |
| Cc1cccc2c1Oc1cc(Cl)ccc1C2NC(=O)CN(C)C (stereo not given) | 49.1 µM (inactive) | – | 33.8 µM (inactive) | 21.6 µM (inactive) | 63.1 µM (inactive) | – | 66.4 µM (inactive) | 36.6 µM (inactive) | > 100 µM (inactive) | > 100 µM (inactive) | 80.5 µM (inactive) | 24.3 µM (inactive) | 35.2 µM (inactive) | 45.2 | – | – | 73.8 µM (inactive) | – |
| CCOC(=O)C1(Br)C(c2ccccc2)NC(=O)NC1(C)Br (stereo not given) | 33.9 µM (inactive) | > 100 µM (inactive) | > 100 µM (inactive) | 57.4 µM (inactive) | 59.6 µM (inactive) | > 100 µM (inactive) | 0.332 µM (active) | > 100 µM (inactive) | > 100 µM (inactive) | > 100 µM (inactive) | – | 52.8 µM (inactive) | 54.6 µM (inactive) | > 100 | > 100 µM (inactive) | 62.5 µM (inactive) | > 100 µM (inactive) | 18.5 µM (inactive) |
| CN(C)c1nc(N(C)c2ccccc2)[s+]s1 | 35.7 µM (inactive) | 36.3 µM (inactive) | 16.7 µM (inactive) | 36.5 µM (inactive) | 44.8 µM (inactive) | > 100 µM (inactive) | > 100 µM (inactive) | 89.5 µM (inactive) | > 100 µM (inactive) | > 100 µM (inactive) | 57.9 µM (inactive) | 12.3 µM (inactive) | > 100 µM (inactive) | 54.3 | 60.4 µM (inactive) | – | > 100 µM (inactive) | > 100 µM (inactive) |
| C[P+]1(c2ccccc2)CCCCC1 | > 100 µM (inactive) | > 100 µM (inactive) | > 100 µM (inactive) | > 100 µM (inactive) | > 100 µM (inactive) | – | > 100 µM (inactive) | > 100 µM (inactive) | > 100 µM (inactive) | > 100 µM (inactive) | > 100 µM (inactive) | > 100 µM (inactive) | > 100 µM (inactive) | > 100 | > 100 µM (inactive) | > 100 µM (inactive) | > 100 µM (inactive) | > 100 µM (inactive) |
| C=CCC1[C@@H](C(C)(C)C(C(C)=O)C(=O)C(=O)OC)OC(C(C)(C)C)N1C(=O)OC (stereo not given in full) | 49 µM (inactive) | > 100 µM (inactive) | > 100 µM (inactive) | > 100 µM (inactive) | > 100 µM (inactive) | 48.5 µM (inactive) | – | > 100 µM (inactive) | > 100 µM (inactive) | 61.5 µM (inactive) | > 100 µM (inactive) | > 100 µM (inactive) | – | > 100 | > 100 µM (inactive) | > 100 µM (inactive) | > 100 µM (inactive) | – |
| COc1ccc(OC)c(NCC#N)c1 | > 100 µM (inactive) | > 100 µM (inactive) | > 100 µM (inactive) | > 100 µM (inactive) | > 100 µM (inactive) | > 100 µM (inactive) | > 100 µM (inactive) | > 100 µM (inactive) | > 100 µM (inactive) | – | > 100 µM (inactive) | > 100 µM (inactive) | > 100 µM (inactive) | > 100 | > 100 µM (inactive) | > 100 µM (inactive) | > 100 µM (inactive) | – |
